# Tested on: not listed separately
# Test: Aqueous solubility (buffer vs acetonitrile/water, LC-UV)
# Format: physicochemical
# Details: kinetic from dmso stock, buffer pH 6.8, 24 h of shaking, DMSO concentration of 2.5%
# Procedure: The aqueous solubility of the compounds of the invention is determined by comparing the amount dissolved in buffer to the amount in an acetonitrile/water (1/1) solution. Starting from a 10 mM DMSO stock solution aliquots are diluted with acetonitrile/water (1/1) or buffer, respectively. After 24 h of shaking, the solutions are filtrated and analyzed by LC-UV. The amount dissolved in buffer is compared to the amount in the acetonitrile solution. Solubility is usually being measured from 0.001 to 0.125 mg/mL at a DMSO concentration of 2.5%. If more than 90% of the compound is dissolved in buffer, the value is marked with “>”.
row,solubility at 24 h [µg/mL],SMILES
1,< 1,"Cc1cc(OCCC(C)(C)O)cc(C)c1-c1ccc(F)c2c1CC[C@H]2Oc1ccc([C@H]2C[C@@H]2C(=O)O)cc1 [Example 17 in WO 2013/178575, reference compound]"

# Molecular target: human GPR40 receptor (Homo sapiens, UniProt O14842)
# Sequence (O14842 whole entry): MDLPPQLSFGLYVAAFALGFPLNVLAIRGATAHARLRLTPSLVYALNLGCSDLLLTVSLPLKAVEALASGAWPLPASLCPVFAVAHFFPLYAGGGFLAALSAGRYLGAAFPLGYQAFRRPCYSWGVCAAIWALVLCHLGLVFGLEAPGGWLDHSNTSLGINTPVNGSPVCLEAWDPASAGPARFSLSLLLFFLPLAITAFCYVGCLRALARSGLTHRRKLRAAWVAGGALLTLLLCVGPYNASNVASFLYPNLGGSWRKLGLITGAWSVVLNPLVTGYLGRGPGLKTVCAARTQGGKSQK
# Test: IP1 accumulation measurements using the IPOne assay system
# Format: cell-based
# Details: 1321N1 cells stably expressing human GPR40 receptor; stimulated 1 h at 37° C.
# Procedure: IP1 is assayed according to the manufacturers description (Cisbio Bioassays, France). In brief, the assay is started by substitution of the culture medium by stimulation buffer (Hepes 10 mM, CaCl2 1 mM, MgCl2 0.5 mM, KCl 4.2 mM, NaCl 146 mM, glucose 5.5 mM and LiCl 50 mM, pH 7.4). Cells are stimulated for 1 h at 37° C., 5% CO2 by addition of the compounds that are diluted in stimulation buffer containing LiCl. Assays are stopped by adding HTRF-conjugates (IP1-d2 and Anti-IP1 cryptate Tb) and lysis buffer, provided by the manufacturer. After an incubation time of 1 h at room temperature plates are measured using an EnVision™, Perkin Elmer. The obtained fluorescence ratios at 665/615 […] are then used to calculate the pEC50 values using Assay Explorer 3.3 Software (Accelrys, Inc.) by interpolation using an IP1 reference curve and subsequent sigmoidal curve fitting allowing for a variable hill slope.
row,SMILES,EC50 [nM]
1,"CC(C)(O)CCOc1ccc(-c2cc(CNc3cnc([C@H]4C[C@@H]4C(=O)O)cn3)ccc2C(F)(F)F)cc1 [Example 2, (1S,2S)-2-(5-{[4′-(3-Hydroxy-3-methyl-butoxy)-6-trifluoromethyl-biphenyl-3-ylmethyl]-amino}-pyrazin-2-yl)-cyclopropanecarboxylic acid]",6
2,"Cc1cc(OCCC(C)(C)O)cc(C)c1-c1cc(CNc2cnc([C@H]3C[C@@H]3C(=O)O)cn2)ccc1C(F)(F)F [Example 5, (1S,2S)-2-(5-{[4′-(3-Hydroxy-3-methyl-butoxy)-2′,6′-dimethyl-6-trifluoromethyl-biphenyl-3-ylmethyl]-amino}-pyrazin-2-yl)-cyclopropanecarboxylic acid]",310
3,"COc1c(F)cc(-c2cc(CNc3cnc([C@H]4C[C@@H]4C(=O)O)cn3)c(F)cc2F)cc1F [Example 10, (1S,2S)-2-{5-[(4,6,3′,5′-Tetrafluoro-4′-methoxy-biphenyl-3-ylmethyl)-amino]-pyrazin-2-yl}-cyclopropanecarboxylic acid]",53
4,Nc1cc(F)c(-c2ccc(F)c(CNc3cnc(C4CC4C(=O)O)cn3)c2)c(F)c1 (stereo not drawn) [Example 55],189
5,O=C(O)C1CC1c1cnc(NCc2cc(-c3c(F)cccc3F)ccc2F)cn1 (stereo not drawn) [Example 47],579
6,O=C(O)C1CC1c1cnc(NCc2cc(-c3ccc(-c4cnco4)cc3)ccc2F)cn1 (stereo not drawn) [Example 56],177
7,N#CC1(c2ccccc2-c2ccc(F)c(CNc3cnc(C4CC4C(=O)O)cn3)c2)CC1 (stereo not drawn) [Example 51],51
8,N#Cc1cccc(C#N)c1-c1ccc(F)c(CNc2cnc(C3CC3C(=O)O)cn2)c1 (stereo not drawn) [Example 57],> 10000
9,CC(C)c1ccccc1-c1ccc(F)c(CNc2cnc(C3CC3C(=O)O)cn2)c1 (stereo not drawn) [Example 17],154
10,O=C(O)C1CC1c1cnc(NCc2cc(-c3ccccc3C(F)(F)F)ccc2F)cn1 (stereo not drawn) [Example 40],51
11,COc1cc(OC)c(-c2ccc(F)c(CNc3cnc(C4CC4C(=O)O)cn3)c2)c(OC)c1 (stereo not drawn) [Example 53],887
12,Cc1cc(OCC(=O)O)cc(C)c1-c1ccc(F)c(CNc2cnc(C3CC3C(=O)O)cn2)c1 (stereo not drawn) [Example 34],104
13,COc1cc(F)c(-c2ccc(F)c(CNc3cnc(C4CC4C(=O)O)cn3)c2)c(F)c1 (stereo not drawn) [Example 58],896
14,Cc1cc(OCC2(O)CCOCC2)cc(C)c1-c1ccc(F)c(CNc2cnc(C3CC3C(=O)O)cn2)c1 (stereo not drawn) [Example 29],68
15,Cc1cc(OCC(C)(C)C#N)cc(C)c1-c1ccc(F)c(CNc2cnc(C3CC3C(=O)O)cn2)c1 (stereo not drawn) [Example 24],34
16,COc1cc(OC)c(Cl)c(-c2ccc(F)c(CNc3cnc(C4CC4C(=O)O)cn3)c2)c1Cl (stereo not drawn) [Example 50],1390
17,CNC(=O)c1cc(C)c(-c2ccc(F)c(CNc3cnc(C4CC4C(=O)O)cn3)c2)c(C)c1 (stereo not drawn) [Example 13],224
18,"Cc1cc(OCCCS(C)(=O)=O)cc(C)c1-c1cccc(CNc2cnc([C@H]3C[C@@H]3C(=O)O)cn2)c1 [Example 1, (1S,2S)-2-(5-{[4′-(3-Methanesulfonyl-propoxy)-2′,6′-dimethyl-biphenyl-3-ylmethyl]-amino}-pyrazin-2-yl)-cyclopropanecarboxylic acid]",36
19,Cc1cc(OCC2(O)CCS(=O)(=O)CC2)cc(C)c1-c1ccc(F)c(CNc2cnc(C3CC3C(=O)O)cn2)c1 (stereo not drawn) [Example 12],100
20,"O=C(O)[C@H]1C[C@@H]1c1cnc(NCc2ccc(C(F)(F)F)c(-c3ccc(OCC4CC4)cc3)c2)cn1 [Example 3, (1S,2S)-2-{5-[(4′-Cyclopropylmethoxy-6-trifluoromethyl-biphenyl-3-ylmethyl)-amino]-pyrazin-2-yl}-cyclopropanecarboxylic acid]",28
21,"O=C(O)[C@H]1C[C@@H]1c1cnc(NCc2cc(-c3ccc(O)c(Cl)c3)c(F)cc2F)cn1 [Example 9, (1S,2S)-2-{5-[(3′-Choro-4,6-difluoro-4′-hydroxy-biphenyl-3-ylmethyl)-amino]-pyrazin-2-yl}-cyclopropanecarboxylic acid]",596
22,Cc1cc(C(=O)N(C)C)cc(C)c1-c1ccc(F)c(CNc2cnc(C3CC3C(=O)O)cn2)c1 (stereo not drawn) [Example 14],34
23,O=C(O)C1CC1c1cnc(NCc2cc(-c3c(F)cc(F)cc3F)ccc2F)cn1 (stereo not drawn) [Example 45],34
24,Cc1cc(CO)cc(C)c1-c1ccc(F)c(CNc2cnc(C3CC3C(=O)O)cn2)c1 (stereo not drawn) [Example 39],4280
25,Cc1ccc(Cl)c(-c2ccc(F)c(CNc3cnc(C4CC4C(=O)O)cn3)c2)c1Cl (stereo not drawn) [Example 41],723
26,"COc1ccc(-c2ccc(-c3cc(CNc4cnc([C@H]5C[C@@H]5C(=O)O)cn4)c(F)cc3F)cc2)nn1 [Example 7, (1S,2S)-2-(5-{[4,6-Difluoro-4′-(6-methoxy-pyridazin-3-yl)-biphenyl-3-ylmethyl]-amino}-pyrazin-2-yl)-cyclopropanecarboxylic acid]",38
27,"Cc1cc(N)ccc1-c1cc(CNc2cnc([C@H]3C[C@@H]3C(=O)O)cn2)c(F)cc1F [Example 8, (1S,2S)-2-{5-[(4′-Amino-4,6-difluoro-2′-methyl-biphenyl-3-ylmethyl)-amino]-pyrazin-2-yl}-cyclopropanecarboxylic acid]",126
28,Cc1cc(OCC2CCCO2)cc(C)c1-c1ccc(F)c(CNc2cnc(C3CC3C(=O)O)cn2)c1 (mixture of isomers) [Example 44],1920
29,COc1cc(OC)c(F)c(-c2ccc(F)c(CNc3cnc(C4CC4C(=O)O)cn3)c2)c1F (stereo not drawn) [Example 37],47
30,Cc1cc(OCC2(C)COC2)cc(C)c1-c1ccc(F)c(CNc2cnc(C3CC3C(=O)O)cn2)c1 (stereo not drawn) [Example 33],147

# Second part, the compound after the results:
row,EC50 [nM],SMILES
1,19,"COc1ccc(-c2ccc(-c3cc(CNc4cnc([C@H]5C[C@@H]5C(=O)O)cn4)c(F)cc3F)cc2)nc1 [Example 6, (1S,2S)-2-(5-{[4,6-Difluoro-4′-(5-methoxy-pyridin-2-yl)-biphenyl-3-ylmethyl]-amino}-pyrazin-2-yl)-cyclopropanecarboxylic acid]"
2,11,O=C(O)C1CC1c1cnc(NCc2cc(-c3c(F)cc(OC4CC4)cc3F)ccc2F)cn1 (stereo not drawn) [Example 54]
3,24,COc1cc(C)c(-c2ccc(F)c(CNc3cnc(C4CC4C(=O)O)cn3)c2)c(C)c1 (stereo not drawn) [Example 48]
4,10,Cc1cc(C(N)=O)cc(C)c1-c1ccc(F)c(CNc2cnc(C3CC3C(=O)O)cn2)c1 (stereo not drawn) [Example 49]
5,7,Cc1cc(-c2nnn(CC(C)(C)O)n2)cc(C)c1-c1ccc(F)c(CNc2cnc(C3CC3C(=O)O)cn2)c1 (stereo not drawn) [Example 28]
6,22,Cc1cc(OC2CCOCC2)cc(C)c1-c1ccc(F)c(CNc2cnc(C3CC3C(=O)O)cn2)c1 (stereo not drawn) [Example 20]
7,18,Cc1cc(OCC(C)(C)O)cc(C)c1-c1ccc(F)c(CNc2cnc(C3CC3C(=O)O)cn2)c1 (stereo not drawn) [Example 11]
8,14,Cc1cc(OCC2CCOCC2)cc(C)c1-c1ccc(F)c(CNc2cnc(C3CC3C(=O)O)cn2)c1 (stereo not drawn) [Example 18]
9,24,Cc1cccc(C)c1-c1ccc(F)c(CNc2cnc(C3CC3C(=O)O)cn2)c1 (stereo not drawn) [Example 59]
10,14,Cc1cc(-c2ccn(C)c(=O)c2)cc(C)c1-c1ccc(F)c(CNc2cnc(C3CC3C(=O)O)cn2)c1 (stereo not drawn) [Example 22]
11,28,Cc1cc(OCC2(O)CCSCC2)cc(C)c1-c1ccc(F)c(CNc2cnc(C3CC3C(=O)O)cn2)c1 (stereo not drawn) [Example 30]
12,28,Cc1cc(OC2CCOC2)cc(C)c1-c1ccc(F)c(CNc2cnc(C3CC3C(=O)O)cn2)c1 (stereo not drawn) [Example 42]
13,6,O=C(O)C1CC1c1cnc(NCc2cc(-c3c(Cl)cccc3Cl)ccc2F)cn1 (stereo not drawn) [Example 46]
14,20,Cc1nc(-c2ccc(-c3ccc(F)c(CNc4cnc(C5CC5C(=O)O)cn4)c3)cc2)cs1 (stereo not drawn) [Example 32]
15,9,"O=C(O)[C@H]1C[C@@H]1c1cnc(NCc2ccc(C(F)(F)F)c(-c3ccc(OC(F)(F)F)cc3)c2)cn1 [Example 4, (1S,2S)-2-{5-[(4′-Trifluoromethoxy-6-trifluoromethyl-biphenyl-3-ylmethyl)-amino]-pyrazin-2-yl}-cyclopropanecarboxylic acid]"
16,21,Cc1cc(-c2ccc(=O)n(C)c2)cc(C)c1-c1ccc(F)c(CNc2cnc(C3CC3C(=O)O)cn2)c1 (stereo not drawn) [Example 16]
17,21,Cc1cc(-c2cc(=O)n(C)cn2)cc(C)c1-c1ccc(F)c(CNc2cnc(C3CC3C(=O)O)cn2)c1 (stereo not drawn) [Example 21]
18,5,COc1cc(-c2cc(C)c(-c3ccc(F)c(CNc4cnc(C5CC5C(=O)O)cn4)c3)c(C)c2)ccn1 (stereo not drawn) [Example 31]
19,24,Cc1cc(C(=O)O)cc(C)c1-c1ccc(F)c(CNc2cnc(C3CC3C(=O)O)cn2)c1 (stereo not drawn) [Example 15]
20,4,CCc1cccc(CC)c1-c1ccc(F)c(CNc2cnc(C3CC3C(=O)O)cn2)c1 (stereo not drawn) [Example 36]
